Source: US9359352B2, “Substituted benzimidazoles as PI3 kinase inhibitors” (Intellikine LLC, priority 2010, dated 2016)
Where two headings read alike, the source gives them in different places.

Tests used:
Assay type in all cases: biochemical
[1] = biological target: T1, PI3K δ (Homo sapiens, UniProt O00329); assay: PI 3-Kinase HTRF inhibition assay, PI3K δ
T1 construct: purchased Upstate
Experimental: (§1) Commercial kits or systems for assaying PI3-K activities are available. The commercially available kits or systems can be used to screen for inhibitors and/or agonists of PI3-Ks including but not limited to PI 3-Kinase α, β, δ, and γ. An exemplary system is PI 3-Kinase (human) HTRF™ Assay from Upstate. […] Briefly, the assay is a time resolved FRET assay that indirectly measures PIP3 product formed by the activity of a PI3-K. The kinase reaction is performed in a microtitre plate (e.g., a 384 well microtitre plate). The total reaction volume is approximately 20 ul per well. In the first step, each well receives 2 ul of test compound in 20% dimethylsulphoxide resulting in a 2% DMSO final concentration. Next, approximately 14.5 ul of a kinase/PIP2 mixture (diluted in 1× reaction buffer) is added per well for a final concentration of 0.25-0.3 ug/ml kinase and 10 μM PIP2. The plate is scaled and incubated for 15 minutes at room temperature. To start the reaction, 3.5 ul of ATP (diluted in 1× reaction buffer) is added per well for a final concentration of 10 μM ATP. The plate is sealed and incubated for 1 hour at room temperature. The reaction is stopped by adding 5 ul of Stop Solution per well and then 5 ul of Detection Mix is added per well. The plate is sealed, incubated for 1 hour at room temperature, and then read on an appropriate plate reader. Data is analyzed and IC50s are generated using GraphPad Prism 5. For PI3K α, β, δ, and γ, the nM concentration of inhibitor to reach IC50 is provided. […] Similar assays, and others known in the art, can be used to measure the percent inhibition of other kinases, including but not limited to PI3K class II kinases, phosphoinositide 4 kinases (PI4K), and phosphoinositide 5 kinases (PI5K).

[2] = biological target: T2, PI3K β (Homo sapiens, UniProt P42338); assay: PI 3-Kinase HTRF inhibition assay, PI3K β; details: in vitro
T2 construct: purchased Upstate
Experimental: as §1

[3] = biological target: T3, PI3K α (Homo sapiens, UniProt P42336); assay: PI 3-Kinase HTRF inhibition assay, PI3K α
T3 construct: purchased Upstate
Experimental: as §1

[4] = biological target: T4, PI3K γ (Homo sapiens, UniProt P48736); assay: PI 3-Kinase HTRF inhibition assay, PI3K γ; details: in vitro
T4 construct: purchased Upstate

[5] = in vitro, read-out: PI3K δ IC50
[6] = in vitro, read-out: PI3K α IC50

T3 sequence (P42336 whole entry): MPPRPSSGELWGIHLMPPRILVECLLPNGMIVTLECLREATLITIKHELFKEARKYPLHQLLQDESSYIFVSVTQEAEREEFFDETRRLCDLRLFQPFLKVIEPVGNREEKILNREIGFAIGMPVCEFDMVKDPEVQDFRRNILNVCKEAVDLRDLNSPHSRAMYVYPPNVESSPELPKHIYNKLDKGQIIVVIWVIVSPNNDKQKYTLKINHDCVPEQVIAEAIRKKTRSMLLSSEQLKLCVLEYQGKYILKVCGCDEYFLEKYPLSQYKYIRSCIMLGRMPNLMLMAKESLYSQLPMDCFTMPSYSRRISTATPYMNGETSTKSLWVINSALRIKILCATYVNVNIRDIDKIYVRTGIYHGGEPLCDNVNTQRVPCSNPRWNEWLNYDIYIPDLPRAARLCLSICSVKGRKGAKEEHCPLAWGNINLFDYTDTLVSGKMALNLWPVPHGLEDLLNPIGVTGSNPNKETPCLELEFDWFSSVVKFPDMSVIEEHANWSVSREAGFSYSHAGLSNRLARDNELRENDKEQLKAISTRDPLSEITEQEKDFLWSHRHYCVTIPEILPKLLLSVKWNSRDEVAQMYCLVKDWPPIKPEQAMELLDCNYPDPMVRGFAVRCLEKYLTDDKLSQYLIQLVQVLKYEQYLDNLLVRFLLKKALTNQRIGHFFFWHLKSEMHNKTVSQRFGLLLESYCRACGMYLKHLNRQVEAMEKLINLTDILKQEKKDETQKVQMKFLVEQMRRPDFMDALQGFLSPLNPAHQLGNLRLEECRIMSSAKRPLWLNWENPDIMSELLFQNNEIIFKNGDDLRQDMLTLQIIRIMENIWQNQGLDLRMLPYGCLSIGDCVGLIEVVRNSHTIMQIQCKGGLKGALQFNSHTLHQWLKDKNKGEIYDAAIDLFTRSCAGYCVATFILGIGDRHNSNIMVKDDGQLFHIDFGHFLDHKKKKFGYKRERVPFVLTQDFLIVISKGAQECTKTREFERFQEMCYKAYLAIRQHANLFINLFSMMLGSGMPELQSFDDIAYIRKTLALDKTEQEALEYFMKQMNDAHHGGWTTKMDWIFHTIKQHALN
T3 sequence (P27986 whole entry partner): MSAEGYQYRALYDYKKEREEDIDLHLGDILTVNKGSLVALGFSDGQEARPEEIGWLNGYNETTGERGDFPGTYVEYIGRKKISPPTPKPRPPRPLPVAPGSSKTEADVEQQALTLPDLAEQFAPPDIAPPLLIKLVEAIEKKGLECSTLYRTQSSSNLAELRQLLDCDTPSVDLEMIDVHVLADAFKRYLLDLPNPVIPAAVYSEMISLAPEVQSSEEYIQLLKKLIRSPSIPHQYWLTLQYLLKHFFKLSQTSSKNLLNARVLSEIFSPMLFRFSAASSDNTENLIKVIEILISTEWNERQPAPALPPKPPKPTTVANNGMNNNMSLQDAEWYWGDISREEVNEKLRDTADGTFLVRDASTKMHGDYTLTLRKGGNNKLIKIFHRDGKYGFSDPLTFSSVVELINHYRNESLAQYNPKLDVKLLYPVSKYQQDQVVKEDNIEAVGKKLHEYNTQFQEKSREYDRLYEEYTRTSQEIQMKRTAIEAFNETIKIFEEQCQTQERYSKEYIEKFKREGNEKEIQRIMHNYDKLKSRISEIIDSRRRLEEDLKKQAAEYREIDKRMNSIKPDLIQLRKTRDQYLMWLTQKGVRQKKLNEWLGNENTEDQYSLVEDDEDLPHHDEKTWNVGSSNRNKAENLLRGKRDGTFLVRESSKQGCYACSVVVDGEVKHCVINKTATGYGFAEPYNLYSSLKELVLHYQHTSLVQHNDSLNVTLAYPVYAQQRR
T4 sequence (P48736 whole entry): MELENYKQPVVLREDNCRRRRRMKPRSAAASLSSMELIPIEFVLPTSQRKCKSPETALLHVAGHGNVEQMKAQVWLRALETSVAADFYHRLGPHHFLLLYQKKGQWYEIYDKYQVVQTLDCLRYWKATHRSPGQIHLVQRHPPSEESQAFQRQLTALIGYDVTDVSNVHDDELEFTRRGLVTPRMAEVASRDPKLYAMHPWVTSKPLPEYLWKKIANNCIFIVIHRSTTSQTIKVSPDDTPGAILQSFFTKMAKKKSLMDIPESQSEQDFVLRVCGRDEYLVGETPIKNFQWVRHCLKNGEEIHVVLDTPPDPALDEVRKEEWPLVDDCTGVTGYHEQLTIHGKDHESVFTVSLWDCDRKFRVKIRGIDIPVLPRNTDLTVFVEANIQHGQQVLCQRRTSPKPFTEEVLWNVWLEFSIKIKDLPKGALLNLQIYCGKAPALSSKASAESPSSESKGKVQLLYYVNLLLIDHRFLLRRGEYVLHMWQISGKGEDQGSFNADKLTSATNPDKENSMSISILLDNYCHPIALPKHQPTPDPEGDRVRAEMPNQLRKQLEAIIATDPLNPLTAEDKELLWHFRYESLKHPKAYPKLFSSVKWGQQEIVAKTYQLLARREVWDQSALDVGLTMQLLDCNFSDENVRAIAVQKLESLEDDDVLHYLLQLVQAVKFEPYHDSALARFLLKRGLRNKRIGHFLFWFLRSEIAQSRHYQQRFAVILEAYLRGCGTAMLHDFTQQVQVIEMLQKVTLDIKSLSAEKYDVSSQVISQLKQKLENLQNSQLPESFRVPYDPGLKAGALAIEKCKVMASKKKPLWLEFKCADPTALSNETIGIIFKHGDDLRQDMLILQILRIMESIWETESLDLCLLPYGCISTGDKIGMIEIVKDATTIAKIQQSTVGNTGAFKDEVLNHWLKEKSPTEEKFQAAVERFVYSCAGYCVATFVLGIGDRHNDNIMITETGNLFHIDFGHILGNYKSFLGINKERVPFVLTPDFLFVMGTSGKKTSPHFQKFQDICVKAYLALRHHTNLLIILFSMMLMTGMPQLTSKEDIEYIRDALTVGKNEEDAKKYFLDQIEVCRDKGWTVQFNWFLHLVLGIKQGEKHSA
T1 sequence (O00329 whole entry): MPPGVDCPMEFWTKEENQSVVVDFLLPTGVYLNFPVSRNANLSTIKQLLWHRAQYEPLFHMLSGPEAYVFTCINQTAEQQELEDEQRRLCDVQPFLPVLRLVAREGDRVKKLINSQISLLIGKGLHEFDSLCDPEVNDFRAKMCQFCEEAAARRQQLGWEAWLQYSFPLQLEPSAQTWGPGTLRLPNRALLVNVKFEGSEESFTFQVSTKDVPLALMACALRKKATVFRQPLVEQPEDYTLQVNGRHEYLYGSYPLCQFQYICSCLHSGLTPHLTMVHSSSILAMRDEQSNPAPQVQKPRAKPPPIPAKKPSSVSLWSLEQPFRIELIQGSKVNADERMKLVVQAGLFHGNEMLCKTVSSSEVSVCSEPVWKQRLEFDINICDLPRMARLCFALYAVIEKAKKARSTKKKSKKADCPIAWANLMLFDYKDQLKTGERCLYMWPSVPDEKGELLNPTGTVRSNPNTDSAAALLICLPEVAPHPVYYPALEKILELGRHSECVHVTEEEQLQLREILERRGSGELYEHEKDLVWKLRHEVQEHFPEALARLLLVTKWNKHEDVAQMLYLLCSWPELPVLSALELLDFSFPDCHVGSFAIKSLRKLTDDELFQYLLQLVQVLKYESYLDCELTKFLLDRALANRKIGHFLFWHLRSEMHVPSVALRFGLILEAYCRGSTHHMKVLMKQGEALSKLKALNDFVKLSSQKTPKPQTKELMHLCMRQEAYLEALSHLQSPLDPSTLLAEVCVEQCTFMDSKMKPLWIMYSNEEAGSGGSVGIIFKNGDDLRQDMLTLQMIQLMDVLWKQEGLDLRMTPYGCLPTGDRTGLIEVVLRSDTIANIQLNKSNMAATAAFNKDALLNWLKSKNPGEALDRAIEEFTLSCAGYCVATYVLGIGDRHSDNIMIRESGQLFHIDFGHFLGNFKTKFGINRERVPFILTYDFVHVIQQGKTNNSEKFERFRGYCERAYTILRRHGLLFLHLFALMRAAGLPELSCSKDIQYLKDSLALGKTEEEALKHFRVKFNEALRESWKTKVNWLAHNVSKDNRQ
T1 sequence (P27986 whole entry partner): as the sequence (P27986 whole entry partner) above
T2 sequence (P42338 whole entry): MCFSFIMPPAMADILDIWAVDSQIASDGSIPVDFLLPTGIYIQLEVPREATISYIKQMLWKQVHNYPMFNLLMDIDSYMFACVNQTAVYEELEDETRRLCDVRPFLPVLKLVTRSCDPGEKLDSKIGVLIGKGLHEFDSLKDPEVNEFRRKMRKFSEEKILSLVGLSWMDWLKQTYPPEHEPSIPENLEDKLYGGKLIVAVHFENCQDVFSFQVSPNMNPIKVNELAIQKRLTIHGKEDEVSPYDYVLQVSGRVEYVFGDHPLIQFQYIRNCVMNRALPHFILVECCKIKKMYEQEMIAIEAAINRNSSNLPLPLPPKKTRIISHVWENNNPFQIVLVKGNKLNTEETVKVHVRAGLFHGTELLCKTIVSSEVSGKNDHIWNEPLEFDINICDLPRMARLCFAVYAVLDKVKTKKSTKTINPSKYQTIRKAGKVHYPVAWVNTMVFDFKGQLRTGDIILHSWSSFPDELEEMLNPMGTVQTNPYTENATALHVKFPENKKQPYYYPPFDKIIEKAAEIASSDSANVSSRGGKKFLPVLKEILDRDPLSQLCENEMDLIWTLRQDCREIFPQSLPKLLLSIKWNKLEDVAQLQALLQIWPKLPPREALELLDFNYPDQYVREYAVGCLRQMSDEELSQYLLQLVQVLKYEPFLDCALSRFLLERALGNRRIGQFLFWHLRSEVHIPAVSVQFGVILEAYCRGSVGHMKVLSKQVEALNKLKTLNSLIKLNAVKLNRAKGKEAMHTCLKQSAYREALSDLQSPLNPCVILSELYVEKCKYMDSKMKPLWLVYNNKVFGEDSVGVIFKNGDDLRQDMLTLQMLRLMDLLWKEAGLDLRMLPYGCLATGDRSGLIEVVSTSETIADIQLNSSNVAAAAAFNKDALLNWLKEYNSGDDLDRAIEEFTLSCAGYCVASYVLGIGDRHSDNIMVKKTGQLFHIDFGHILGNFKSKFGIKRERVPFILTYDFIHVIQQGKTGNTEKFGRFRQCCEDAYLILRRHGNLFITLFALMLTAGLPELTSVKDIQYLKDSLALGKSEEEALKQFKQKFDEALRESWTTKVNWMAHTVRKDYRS
T2 sequence (P27986 whole entry partner): as the sequence (P27986 whole entry partner) above

| Compound | IC50 [1, 5] [µM] | IC50 [2] [µM] | IC50 [3, 6] [µM] | IC50 [4] [µM] | IC50 [1] [µM] | IC50 [3] [µM] |
| --- | --- | --- | --- | --- | --- | --- |
| CC1(C)CN(C2CN(c3cnc4ccc(-c5ccc6oc(N)nc6c5)nc4c3)C2)CCN1 [Compound 58] | < 1 | < 10 | < 0.1 | < 1 | – | – |
| Nc1nc2cc(-c3ccc4ncc(N5CC6CCC(C5)O6)cc4n3)ccc2o1 [Compound 59] | > 10 | > 10 | < 0.1 | < 0.1 | – | – |
| Nc1nc2cc(-c3ccc4ncc(N5CC(N6CCN(CC7CC7)CC6)C5)cc4n3)ccc2o1 [Compound 60] | < 1 | < 10 | < 0.1 | < 10 | – | – |
| C[C@H]1COCCN1C1CN(c2cnc3ccc(-c4ccc5oc(N)nc5c4)nc3n2)C1 [Compound 61] | < 10 | > 10 | < 0.1 | < 10 | – | – |
| Nc1nc2cc(-c3ccc4ncc(N5CCC(O)CC5)cc4n3)ccc2o1 [Compound 62] | < 10 | < 10 | < 0.1 | < 1 | – | – |
| Cc1nccn1C1CN(c2cnc3ccc(-c4ccc5oc(N)nc5c4)nc3c2)C1 [Compound 63] | < 1 | < 10 | < 0.1 | < 0.1 | – | – |
| CN1CCN(C2CN(c3cnc4ccc(-c5ccc6oc(N)nc6c5)nc4c3)C2)CC1=O [Compound 64] | < 1 | < 10 | < 0.1 | < 0.1 | – | – |
| Nc1nc2cc(-c3ccc4ncc(N5CC(N6CCN(CCO)CC6)C5)cc4n3)ccc2o1 [Compound 65] | < 1 | < 10 | < 0.1 | < 1 | – | – |
| C[C@@H]1COCCN1C1CN(c2cnc3ccc(-c4ccc5oc(N)nc5c4)nc3c2)C1 [Compound 66] | < 1 | < 10 | < 0.1 | < 0.1 | – | – |
| Nc1nc2cc(-c3ccc4ncc(N5CC(N6C7CCC6COC7)C5)cc4n3)ccc2o1 [Compound 67] | – | > 10 | < 0.1 | < 1 | < 10 | – |
| C[C@H]1COCCN1C1CN(c2cnc3ccc(-c4ccc5oc(N)nc5c4)nc3c2)C1 [Compound 68] | > 10 | > 10 | < 0.1 | < 10 | – | – |
| Nc1nc2cc(-c3ccc4ncc(N5CC(N6CCN(C7CC7)CC6)C5)nc4n3)ccc2o1 [Compound 69] | < 10 | < 10 | < 0.1 | < 10 | – | – |
| Nc1nc2cc(-c3ccc4ncc(N5CC(N6CCN(C7CC7)CC6)C5)cc4n3)ccc2o1 [Compound 70] | < 10 | < 10 | < 0.1 | < 1 | – | – |
| CN1CCN(C2CN(c3cnc4ccc(-c5ccc6oc(N)nc6c5)nc4n3)C2)CC1 [Compound 71] | < 1 | < 10 | < 0.1 | > 10 | – | – |
| Nc1nc2cc(-c3cnc4ccc(N5CCOCC5)nc4c3)ccc2o1 [Compound 73, 5-(6-morpholino-1,5-naphthyridin-3-yl)benzo[d]oxazol-2-amine] | > 10 | > 10 | < 10 | < 10 | – | – |
| CN1CCN(C2CN(c3cnc4ccc(-c5ccc6oc(N)nc6c5)nc4c3)C2)CC1 [Compound 74] | < 1 | < 1 | < 0.1 | < 1 | – | – |
| CCN1CCN(C2CN(c3cnc4ccc(-c5ccc6oc(N)nc6c5)nc4c3)C2)CC1 [Compound 75] | < 1 | < 1 | < 0.1 | < 10 | – | – |
| CCN1CCN(C2CN(c3cnc4ccc(-c5ccc6oc(N)nc6c5)nc4n3)C2)CC1 [Compound 76] | < 10 | < 10 | < 0.1 | < 10 | – | – |
| CC(C)N1CCN(C2CN(c3cnc4ccc(-c5ccc6oc(N)nc6c5)nc4n3)C2)CC1 [Compound 77] | > 10 | > 10 | < 10 | > 10 | – | – |
| CN1CCN(c2ccc3ncc(-c4ccc5oc(N)nc5c4)cc3n2)CC1 [Compound 80] | > 10 | < 10 | < 10 | > 10 | – | – |
| Nc1nc2cc(-c3cnc4ccc(N5C6CCC5COC6)nc4c3)ccc2o1 [Compound 81] | > 10 | > 10 | – | < 10 | – | < 10 |
| CC(C)(N)C(=O)N1CCN(c2ccc3ncc(-c4ccc5oc(N)nc5c4)cc3n2)CC1 [Compound 82] | > 10 | > 10 | < 10 | < 10 | – | – |
